# From US10159659B2, “Predicting response to cancer therapy” (BIONOMICS LIMITED, priority 2014, dated 2018)
# Key:
# [1] = Maximum tolerated dose of BNC105P by intravenous infusion in patients; format: in vivo, human; conditions: intravenous infusion over 10 minutes, days 1 and 8 of 21 day cycle, with 10 mg oral everolimus daily
# Method: Patients in the BNC105P in combination with everolimus study group (the “combination arm”) were administered 10 mg oral everolimus daily. On days 1 and 8 of the 21 day cycle period, the patients were administered 16 mg/m^2 BNC105P, which had been determined to be the maximum tolerated dose, by intravenous infusion over a 10 minute period (FIG. 1). Treatment was continued until disease progressed, intolerable toxicity became apparent, or until consent was withdrawn. A control group of patients were administered with everolimus alone.
# [2] = tested on: tumour endothelial cells (activated) and normal endothelial cells (quiescent); assay: Potency against activated versus quiescent endothelial cells; format: cell-based
# [3] = tested on: Metastatic Clear Cell Renal Cell Carcinoma; assay: Disruptor-1 trial: BNC105P in combination with everolimus, progression free survival; format: in vivo, human; conditions: all patients; 10 mg oral everolimus daily, with or without 16 mg/m^2 BNC105P i.v. on days 1 and 8 of 21 day cycle; FIG. 2
# Excerpt: A control group of patients received everolimus alone.
# The medical histories of patients were obtained prior to commencement of the study.
# All patients in the study were followed for disease progression and survival. Prior to commencing treatment, patients enrolled in the study were subject to disease assessment including: CT of chest, abdomen and pelvis; CT of the head or brain MRI; bone scan; echocardiography (ECHO) or multiple gated acquisition scan (MUGA). At every 3 cycles of treatment, CT scans of chest, abdomen and pelvis, and bone scans were performed to determine disease progression.
# Time to disease progression was determined as a measurement from the start of the treatment until the criteria for disease progression is met (or death occurs), taking as reference the smallest measurements recorded since the treatment started. […]
# tubulin = assay: Tubulin polymerisation inhibition; format: biochemical
smiles,measurement,setting,value
"COc1cc(C(=O)c2c(C)oc3c(OP(=O)([O-])[O-])c(OC)ccc23)cc(OC)c1OC.[Na+].[Na+] [BNC105P, disodium [6-methoxy-2-methyl-3-(3,4,5-trimethoxybenzoyl)-1-benzofuran-7-yl] phosphate]",maximum tolerated dose,[1],16 mg/m^2
"COc1ccc(/C=C\c2cc(OC)c(OC)c(OC)c2)cc1O [Combretastatin A4, reference compound]",selectivity between activated (tumour) and quiescent (normal) endothelial cells (in words),[2],equally potent against quiescent and activated endothelial cells
CO[C@H]1C[C@@H]2CC[C@@H](C)[C@@](O)(O2)C(=O)C(=O)N2CCCC[C@H]2C(=O)O[C@H]([C@H](C)C[C@@H]2CC[C@@H](OCCO)[C@H](OC)C2)CC(=O)[C@H](C)/C=C(\C)[C@@H](O)[C@@H](OC)C(=O)[C@H](C)C[C@H](C)/C=C/C=C/C=C/1C [everolimus],patients free of disease progression at 6 months,[3],20 patients
"COc1cc(C(=O)c2c(C)oc3c(O)c(OC)ccc23)cc(OC)c1OC [formula III, 2-methyl-7-hydroxy-3-(3,4,5-trimethoxybenzoyl)-6-methoxybenzofuran]",tubulin polymerisation inhibition (in words),tubulin,potent tubulin polymerisation inhibitors
same,selectivity between activated (tumour) and quiescent (normal) endothelial cells (in words),[2],show selectivity towards tumor endothelial cells (activated) over normal endothelial cells (quiescent)
